Experiments:
GALK1 = test: Kinobeads competition binding: GALK1; design: species or system human; conditions: target GALK1
MAP3K12 = test: Kinobeads competition binding: MAP3K12; design: species or system human; conditions: target MAP3K12
NAT10 = test: Kinobeads competition binding: NAT10; design: species or system human; conditions: target NAT10
EPHB6 = target: T1, EPHB6 (Homo sapiens, UniProt O15197); test: Kinobeads two-dose competition binding: EPHB6; conditions: target EPHB6
T1 construct: to maximize the representation of endogenous proteins; endogenous in cells
T1 sequence (O15197 32-1021): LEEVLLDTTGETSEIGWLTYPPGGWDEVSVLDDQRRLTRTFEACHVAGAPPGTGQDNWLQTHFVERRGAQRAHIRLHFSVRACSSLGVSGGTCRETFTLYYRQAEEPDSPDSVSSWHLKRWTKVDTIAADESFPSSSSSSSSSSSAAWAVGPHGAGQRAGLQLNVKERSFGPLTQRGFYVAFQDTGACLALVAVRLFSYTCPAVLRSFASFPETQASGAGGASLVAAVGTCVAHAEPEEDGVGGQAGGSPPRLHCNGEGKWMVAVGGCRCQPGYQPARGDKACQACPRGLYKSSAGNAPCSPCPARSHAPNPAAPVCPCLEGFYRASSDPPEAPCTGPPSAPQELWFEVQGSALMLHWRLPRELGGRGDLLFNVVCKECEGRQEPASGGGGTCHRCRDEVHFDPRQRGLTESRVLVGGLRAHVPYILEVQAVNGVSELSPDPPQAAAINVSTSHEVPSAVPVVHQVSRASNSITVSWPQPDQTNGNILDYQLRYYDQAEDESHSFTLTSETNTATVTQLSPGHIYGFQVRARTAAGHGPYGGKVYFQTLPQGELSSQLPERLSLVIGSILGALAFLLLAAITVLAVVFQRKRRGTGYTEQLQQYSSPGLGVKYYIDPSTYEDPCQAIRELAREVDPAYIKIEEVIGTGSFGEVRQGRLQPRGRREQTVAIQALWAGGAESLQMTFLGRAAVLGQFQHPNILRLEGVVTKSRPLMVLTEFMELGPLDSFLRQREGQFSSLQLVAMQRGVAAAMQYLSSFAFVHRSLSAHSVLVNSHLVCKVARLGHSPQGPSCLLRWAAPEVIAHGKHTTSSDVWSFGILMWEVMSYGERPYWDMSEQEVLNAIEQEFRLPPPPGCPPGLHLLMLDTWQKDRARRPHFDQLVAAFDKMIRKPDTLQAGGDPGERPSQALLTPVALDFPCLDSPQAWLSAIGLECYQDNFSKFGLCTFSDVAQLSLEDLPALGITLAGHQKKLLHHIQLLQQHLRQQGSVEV
Description: Briefly, Kinobeads comprise seven broad-spectrum small molecule kinase inhibitors immobilized on Sepharose beads. […]. Compounds of interest are set to compete for target protein binding with Kinobeads in the lysate and the amount of a given protein bound to Kinobeads in the presence of a compound can be quantified relative to a dimethylsulfoxide (DMSO) vehicle control by label-free mass spectrometry. This assay measures the physical interaction of a compound with thousands of endogenous proteins in parallel and, when systematically increasing the concentration of competitor, enables the calculation of an apparent interaction constant ( Kdapp ) for each compound and protein.
Kinobeads pulldown experiments were performed as described previously[13],[14],[17] with minor modification. […] The protein concentration was adjusted to 5 mg ml^−1. Kinase inhibitors were spiked into 0.5 ml of cell lysate at final concentrations of 100 and 1,000 nM (or DMSO, 0.3, 1, 3, 10, 30, 100, 300 and 1,000 nM for full dose experiments). […] Lysates were incubated for 45 min at 4 °C. Subsequently, lysates were incubated with Kinobeads ε (17.5 µl of settled beads) for 30 min at 4 °C. To assess the degree of protein depletion from the lysates by Kinobeads, the flow through of the DMSO control was recovered for a pulldown of pulldown experiment where the lysate was incubated a second time with fresh Kinobeads. Beads were washed in three steps with buffer containing 0.4%, 0.2% and no IGEPAL. Bound proteins were reduced with 50 mM DTT in 8 M Urea, 40 mM Tris-HCl pH 7.4 for 30 min at room temperature. After alkylation with 55 mM chloroacetamide, the urea concentration was reduced to 1–2 M and proteins were digested with trypsin. Acidified peptides were desalted and concentrated using SepPak tC18 µEluation plates (Waters). Samples were frozen, dried by vacuum centrifugation and stored at −20 °C.
Each kinase inhibitor was processed together with all DMSO controls of the same plate. Additionally, each search was supplemented with five high quality DMSO controls for consistent peptide identification and protein grouping. The resultant file (proteinGroups.txt) was used for subsequent filtering, normalization, data visualization and target annotation that was automatically performed by a data processing pipeline built in house that used R (including the ‘drc’ and ‘heatmap’ packages). First, reverse hits, potential contaminants and not quantified proteins in the DMSO control samples were discarded. Protein raw and label-free quantification intensities were normalized to the median DMSO control intensity to obtain relative residual binding intensities for each protein group at every inhibitor concentration and standard deviations of the DMSO control intensity were calculated. IC50 values were estimated based on the following equation IC50=I×100−inhibition/inhibition where [I] is the inhibitor concentration that was used for IC50 calculation and ‘inhibition’ the relative residual binding intensity. […]. Estimated Kdapp values were then calculated by multiplying the estimated IC50 values with a protein-dependent correction factor that was limited to a maximum value of one. The correction factor accounts for the depletion of a target protein from the lysate by Kinobeads. The depletion can be measured by the ratio of the amount of protein captured in two consecutive pulldowns of the same DMSO control lysate. In this study, correction factors were determined in separate experiments using the same lysate mixture and the same bead batch. Correction factors were set to the median of all correction factors. Targets of kinase inhibitors were annotated using the previously published random forest classifier. A training data set was annotated manually. […]

NQO1 = target: T2, NQO1 (Homo sapiens, UniProt P15559); test: Kinobeads competition binding: NQO1; conditions: target NQO1
T2 construct: endogenous in cells
Description: Supplement 41589_2023_1459_MOESM4_ESM.xlsx, sheet "CATDS matrix" | column: NQO1

CLK1 = target: T3, CLK1 (Homo sapiens, UniProt P49759); test: Kinobeads competition binding: CLK1; conditions: target CLK1
T3 construct: endogenous in cells

| SMILES | CATDS (GALK1) | CATDS (MAP3K12) | CATDS (NAT10) | CATDS (EPHB6) | CATDS (NQO1) | CATDS (CLK1) |
| --- | --- | --- | --- | --- | --- | --- |
| CCN1CCN(Cc2ccc(Nc3ncc(F)c(-c4cc(F)c5nc(C)n(C(C)C)c5c4)n3)nc2)CC1 [Abemaciclib] | 0 | 0 | 0 | 0 | 0 | – |
| CN(C)C/C=C/C(=O)Nc1cc2c(Nc3ccc(F)c(Cl)c3)ncnc2cc1O[C@H]1CCOC1 [Afatinib] | 0 | – | 0 | 0 | 0 | – |
| CCc1cc2c(cc1N1CCC(N3CCOCC3)CC1)C(C)(C)c1[nH]c3cc(C#N)ccc3c1C2=O [Alectinib] | 0 | 0 | 0 | 0 | 0 | 0 |
| Nc1ncnc2[nH]c(-c3ccccc3)nc12 [AH5015_KCGS] | 0 | 0 | 0 | 0 | 0 | 0 |
| N#CC1(c2ccc(NC(=O)c3cccnc3NCc3ccncc3)cc2)CCCC1 [Apatinib] | 0 | 0 | 0 | 0 | 0 | 0 |
